In one series the test system is pro MMP-2. Briefly: Gelatin zymography of HT-1080 supernatants, pro MMP-2. It is filed as cell-based, human. The settings on record: HT-1080 supernatant; for Inhibitory effectiveness (%) Pro MMP-2: 24 h; for IC50: gelatin zymography. From the text:
(§1) HT-1080 cell line (ATCC:CCL-121) is a human skin fibroblasts tumor, which is a kind of adherent cell lines, secreting gelatinase, MMP-2 and MMP-9, to extracellular space.
(§2) Before carrying out any experimental process of HT-1080 cell lines, in order to enable HT-1080 cells to secrete more MMP-2 and MMP-9 to extracellular space, the medium RPMI-1640 containing 0.5% FBS (without phenol red) was applied when conducting the subcultivation process. After centrifugation, the medium RPMI-1640 containing only 0.5% FBS was added into centrifugal vials to resuspend the cells, and 20 μL of cell suspension solution was transferred into eppendorfs to mixed with 20 μL Trypan blue for cell dyeing. Finally, calculation of the cell concentration was accomplished by using hemocytometer through optical microscope.
(§3) Suitable amount of the medium RPMI-1640 (based on the cell concentration obtained previous) containing only 0.5% FBS (without phenol red) was applied into the remaining the cell suspension solution, as the resulting concentration of the cell suspension solution around 5×10^5 cells/mL. Afterwards, 500 μL of cell suspension solutions was transferred onto 24-well cell culture plates, followed by 24 hours incubation at 37° C. for the further experiments.
(§4) To evaluation the inhibitory effectiveness of gelatinase of 4GX and 4G, a gelatin zymography is needed to be conducted.
(§5) The cell suspension solution (with concentration about 5×10^5 cells/mL) of the previous cell pre-treatment process was placed to a 24-well cell culture plates for 24 hours of incubation at 37° C. Subsequently, 1 μL of the solutions, containing 4GX and 4G, in different concentrations from 10 to 100 μM (10, 20, 50, 100 μM) were applied into each well respectively as vehicle controls, 1 μL of catechin in concentration of 100 μM was applied into the well as a positive control, whereas the well applied without any compounds is as blank, followed by 24 hours of incubation at 37° C. Afterwards, the plate was placed into ice to terminate the reaction, the supernatant of each well were taken out separately for the further experiments.
(§6) Supernatants and two volume of a sample loading dye (500 mM Tris-HCL, 25% Glycerol, 10% SDS, 0.32% Bromophenol blue, pH 6.8) and one volume of a dye were mixed together to use as the indicator of running end point. Afterwards, the enzyme activity was analyzed by polyacrylamide gel electrophoresis (PAGE).
(§7) 1% of gelatin and 10% of polyacrylamide were contained in the gel of PAGE, where gelatin acts as the substrate for gelatinase (pro MMP-2, MMP-2 and pro MMP-9). The running buffer was 25 mM Tris-base, 192 mM […] and 0.1% sodium dodecyl sulfate (SDS), pH 8.3, and the power supply was 125 V/80 mA.
(§8) Following the electrophoresis, the gel was washed with 2.5% Triton X-100 at 24° C. twice in 30 minutes to remove the dye and SDS from the gel. Afterwards, the gel was incubated with a reacting buffer (50 mM Tris-base, 200 mM NaCl, 5 mM CaCl2 and 0.02% Brij 35, pH 7.5) at 37° C. for 24 hours in a thermostatic cabinet, enabling gelatinase enzymatically react with gelatin. The fixing solution (7% acetic acid and 40% methanol) was subsequently applied to the gel for 30 minutes, in order to secure the proteins onto the gel. After 30 minutes, the gel was stained with Brilliant Blue G-Colloidial, and then destained with the destain solution (10% acetic acid and 40% methanol) for visualization of the gelatinase reactive positions against the background of the gel.
(§9) Finally, the gel was then analyzed by image analysis system (Vilber Lounmat, France), and the analysis software was Bio-1 Dversion 99. Setting the blank as reference, setting as 1, and the other groups are presented in relative values in contrast to blank.
(§10) The formula for calculating the inhibitory effectiveness is presented below. The results of gelatin zymography are provided on Table 6, and all values are presented as Mean±S.E.M. (the values of blank−vehicle controls)×100%

The next series deals with MMP-2. Briefly: Gelatin zymography of HT-1080 supernatants, MMP-2. The settings on record: HT-1080 supernatant; for Inhibitory effectiveness (%) MMP-2: 24 h; for IC50: gelatin zymography. It is filed as cell-based, human.
From the text: as §1, §2, §3, §4, §5, §6, §7, §8, §9, §10

The next series has as its system pro MMP-9. Briefly: Gelatin zymography of HT-1080 supernatants, pro MMP-9. It is filed as cell-based, human. The settings on record: HT-1080 supernatant; for Inhibitory effectiveness (%) pro MMP-9: 24 h; for IC50: gelatin zymography.
From the text: as §1, §2, §3, §4, §5, §6, §7, §8, §9, §10

For a further series, the system named is Collagenase type IV. Briefly: Assay of Collagenase (DQ-gelatin fluorescence). It is filed as biochemical. The settings on record: DQ-gelatin substrate. The source says:
Collagenase type IV and DQ-gelatin was applied in this experiment, where DQ^198 (EnzChek Gelatinase/Collagenase Assay Kit, E-12055) is a kind of fluorescent material, which can bonded with gelatin to form DQ-gelatin. […] Thus, the principle of this experiment is that the activity of collagenase is examined by measuring emission intensity of DQ fluorescent as that the chemical bonding between DQ-gelatin can be enzymatically digested by collagenase.
The fluorescence intensity can be measured in a florescence micro-plate reader equipped with standard fluoresce in filters. Digested product from the DQ-gelatin and DQ collagen substrate has absorption wavelength at 495 nm and fluorescence emission wavelength at 515 nm. Therefore, the activity of collagenase can be determined when the fluorescence emission intensity at 515 nm larger than the blank. In other word, the resulting fluorescence emission intensity would decrease at 515 nm if the collagenase inhibitors were applied. The results of collagenase assay are provided on Table 7, and all values are present as Mean±S.E.M.

Series [1] is described as follows: Transdermal penetration test, Franz-type diffusion cell. It is filed as in vitro ADME, mice. The settings on record: for Average (μg) amount of 4G in the skins: average of three. From the text: Franz-type diffusion cell is the apparatus for this experiment, where its structure as a set of vertical double-diffusion and detachable glass containers. The upper donor chamber is a hollow cylindrical for the sample injection, and the bottom of the upper donor chamber has a contacting surface. The lower receptor chamber is double-layered hollow cylindrical diffusion container, where the inner layer of the receptor chamber made of glass contains a fluid for sampling, the outer layer of the receptor chamber is filled with circulating water kept at 37±1° C. for the human body simulation. The contact area between the donor chamber and the receptor chamber is 0.785 cm^2 (the actual penetration area), and the intermediate is fixed with nude and white mice (all three) skins (epidermis facing upwards) by metal clips as the in vitro transdermal penetration barriers.
The experimental method is presented below. First, 4G was dissolved in 30 wt % propylene glycol aqueous solution, followed transferring 0.5 mL of the aqueous solution (containing 0.25 mg) of 4G into the donor chamber of the Franz-type diffusion cell, and top of the open-ended donor chamber was covered with Parafilm® tightly, and the inner receptor chamber was filled with 5.5 mL of the buffer solution (30 wt % ethanol, phosphate buffer solution, pH 7.4), with continuously stirring at 600 rpm. 0.3 mL of the buffer solution was respectively sampled at time points of 1, 2, 4, 6, 8, 10, 12, 24, 36, and 48 hours, and with complete replacement of 0.3 mL of the buffer solution to keep fluid in the diffusion cell the same volume. Finally, the final compound of 4G accumulated in the fluid of the receptor chamber, was analyzed by liquid chromatography tandem mass spectrometry (LC-MS) to investigate the amount of the 4G penetrating through skins and reaching to the blood vessel,
After completing the previous experimental step, the compound, 4G, on the surface of nude and white mice skin were washed with deionized water. Afterwards, the skins were trimmed into the circles with diameter equal to the donor chamber, and following record the skin weight. The skins then placed in homogenizer with 1 mL alcohol at speed 300 rpm for 5 minutes, and followed with centrifugation process at 10000 rpm for 5 minutes. The supernatant was filtered by 0.45 μm PVDF and quantified the content of 4G by LC-MS.

In a further series the test system is HT-1080 cell lines. Briefly: MTT cell viability assay. It is filed as cell-based, human. The settings on record: HT-1080, 22 h + 2 h MTT, blank = 100, mean ± S.E.M.
From the text: as §1, §2, §3
To test the cytotoxicity of 4GX and 4G to HT-1080 cell lines, the cell viability assay need to be conducted. MTT cell viability assay was chosen for this experiment.
The principle of a cell viability assay is the conversion of a yellow tetrazolium salt (MTT; 3-(4,5-Dimethylthiazol-2-yl)-2,5-diphenyl tetrazolium bromide) into a purple product formazan via […] in intact mitochondria, where formazan can be dissolved in dimethylsulfoxide (DMSO). Thus, the increasing yield of resulting product formazan stands for increasing the percentage of cell vitality.
The cell suspension solution (with concentration about 5×10^5 cells/mL) of the previous cell pre-treatment process was placed to a 24-well cell culture plates with 24 hours of incubation under 5% of CO2/air at 37° C. in 70% of humidity, in order to allow cells to grow adherent on the well. After 24 hours of incubation, 1 μL of the solutions containing chemical compounds, 4GX and 4G, prepared in different concentrations (5-100 μM) were applied into each well respectively as vehicle controls, whereas the well applied without any chemical compounds as blank. Finally, the 24-well cell culture plate was placed in incubator for 22 hours of incubation.
Subsequently, the following steps need to avoid the light. After 22 hours of incubation, 50 μL of 5.5 mg/mL MTT was applied in each well for 2 hours of incubation at 37° C. Afterwards, the supernatant was removed from 24-well cell culture plates, and 400 μL DMSO was applied to dissolve the purple product formazan for 15 minutes by shaker at 50 rpm. 150-200 μL of the solution were taken out from each well to examine the adsorption value by ELISA at wavelength 550 nm.
The formula for calculation of cell vitality is presented following: (Adsorption value of vehicle control/blank)×100%
A general note: Formazan colour is commonly taken as a measure of viable cells.

Where “and” joins values, the source holds several entries; their conditions need not be identical. Identical values can stand only once. Bounds are passed on as bounds.

For the compound catechin [reference compound], the “Inhibitory effectiveness (%) Pro MMP-2” value in the series on pro MMP-2 (100 μM) was 56.30% and 72.97%. The “Inhibitory effectiveness (%) MMP-2” value in the series with MMP-2 (100 μM) is 86.77% and 85.00%. The “Inhibitory effectiveness (%) pro MMP-9” value in the series on pro MMP-9 (100 μM) is 64.30% and 76.07%.
With `O=C(OC[C@H]1O[C@@H](OC(=O)c2cc(O)c(O)c(O)c2)[C@H](OC(=O)c2cc(O)c(O)c(O)c2)[C@@H](OC(=O)c2cc(O)c(O)c(O)c2)[C@@H]1O)c1cc(O)c(O)c(O)c1` [4G, 1,2,3,6-tetra-O-galloyl-β-D-glucose], the “Inhibitory effectiveness % (collagenase)” value with Collagenase type IV (20 μM) is 50% and 52.12%; in the series with Collagenase type IV (40 μM), 61.73%. For the same compound, the “accumulated amounts of 4G of the fluid in the receptor chamber” value in series [1] (nude and white mice skins, sampled 1 to 48 hours, LC-MS) was “nearly zero”. In addition, the “Percentage of 4G in the mouse skins” value was found to be 27.84% in series [1] (nude mice skin) and 74.84% in series [1] (white mice skin). For the same compound, the figures for the “Average (μg) amount of 4G in the skins” value in series [1] (nude mice skin) and in series [1] (white mice skin) were 1.17 ± 0.21 µg and 6.07 ± 2.43 µg, respectively. In series [1] (nude mice skin, single samples, 0.25 mg in donor chamber, after 48 hours), the “The amount of 4G in the skins” value was 1.42 µg and 1.02 µg and 1.09 µg. Besides, the “Inhibitory effectiveness (%) Pro MMP-2” value in the series on pro MMP-2 (10 μM) was 10.13%; with pro MMP-2 (20 μM), 16.80%; in the series on pro MMP-2 (50 μM), 30.13%; in the series on pro MMP-2 (100 μM), 39.40%. The IC50 – broadly, the point on the concentration scale where inhibition reaches its midpoint – in the series with pro MMP-2 was 99.6 µM; in the series with MMP-2 it was 23 µM; in the series with pro MMP-9, > 100 µM. Further, the “Inhibitory effectiveness (%) MMP-2” value in the series on MMP-2 (10 μM) came to 29.93%; with MMP-2 (20 μM), 48.07%; in the series with MMP-2 (50 μM), 73.27%. Besides, the “Inhibitory effectiveness (%) pro MMP-9” value came out at 18.73% in the series on pro MMP-9 (10 μM), 28.70% in the series with pro MMP-9 (20 μM), 44.13% in the series with pro MMP-9 (50 μM) and 53.50% in the series on pro MMP-9 (100 μM). In addition, the “Vitality (%)” value in the series with HT-1080 cell lines (10 μM) is 93.45 ± 4.91%; with HT-1080 cell lines (20 μM) it was 87.30 ± 1.93%; in the series on HT-1080 cell lines (50 μM) it was 93.06 ± 4.41%; in the series on HT-1080 cell lines (100 μM) it was 87.81 ± 7.83%.
Take `c1cnc2c(c1)ccc1cccnc12` [1, 10-phenanthroline, reference compound]: the “Inhibitory effectiveness % (collagenase)” value with Collagenase type IV (20 μM) is 12.80%; with Collagenase type IV (40 μM) it was 38.41%.
`O=C(OCC1OC(OC(=O)c2cc(O)c(O)c(O)c2)C(OC(=O)c2cc(O)c(O)c(O)c2)C(OC(=O)c2cc(O)c(O)c(O)c2)C1OC(=O)c1ccc(O)cc1)c1cc(O)c(O)c(O)c1` [4GX, 1,2,3,6-tetra-O-galloyl-4-O-(4-hydroxybenzoyl)-β-D-glucopyranoside]: the “Inhibitory effectiveness (%) Pro MMP-2” value with pro MMP-2 (10 μM) is 15.83%; in the series with pro MMP-2 (20 μM), 31.53%; in the series on pro MMP-2 (50 μM), 62.30%. Moreover, the results for the IC50 in the series with pro MMP-2, in the series on MMP-2 and in the series on pro MMP-9 were 30 µM, 16.3 µM and > 100 µM, respectively. Besides, the “Inhibitory effectiveness (%) MMP-2” value with MMP-2 (10 μM) was found to be 25.46%; in the series with MMP-2 (20 μM), 63.57%; in the series with MMP-2 (50 μM) it was 76.20%. For the same compound, the “Inhibitory effectiveness (%) pro MMP-9” value in the series on pro MMP-9 (10 μM) is listed as 3.80%; with pro MMP-9 (20 μM), 15.83%; in the series on pro MMP-9 (50 μM), 32.17%; in the series with pro MMP-9 (100 μM), 45.47%. The “Vitality (%)” value in the series on HT-1080 cell lines (10 μM) amounted to 97.18 ± 6.52%; with HT-1080 cell lines (20 μM), 100.78 ± 4.06%; with HT-1080 cell lines (50 μM), 105.48 ± 2.18%; in the series on HT-1080 cell lines (100 μM), 94.31 ± 9.76%.

The values above are taken from patent US8486898B2, “Compounds and method for inhibiting the activity of gelatinase and collagenase” (Taipei Medical University (TMU), priority 2010, dated 2013).
